Test results from patent US12018283B2, “Method for producing insulin-producing cells” (KATAOKA CORPORATION, priority 2018, dated 2024).

Tested on: human fibroblasts
Assay: Direct induction from human fibroblasts into insulin-producing cells (immunostaining, morphology)
Assay type: cell-based
Conditions: from Table 1 and FIGS. 3 and 4; removal of one compound at a time

Compound | importance for conversion into cells expressing insulin
C=C[C@@]1(C)CC(=O)[C@]2(O)[C@@]3(C)[C@@H](O)CCC(C)(C)[C@@H]3[C@H](O)[C@H](OC(C)=O)[C@@]2(C)O1 [forskolin, Forskolin] | of particular importance
O=c1cc(N2CCOCC2)oc2c(-c3ccccc3)cccc12 [LY294002] | of particular importance
